Measured values from patent US4745196A, “Orally active phosphonyl hydroxyacyl prolines” (E. R. Squibb & Sons, Inc., priority 1986, dated 1988).
Structures can show the parent of a compound that is named as a salt.

System: angiotensin converting enzyme (ACE)
Assay: in vivo attenuation of angiotensin I pressor response after oral administration in conscious, normotensive rats
Settings: maximum during three-hour period, mean of at least four rats
Experimental: The compounds of formula I were tested in vivo in conscious, normotensive rats. Angiotensin I given intravenously increases blood pressure due to conversion to angiotensin II via the angiotensin converting enzyme (ACE). ACE inhibition was reflected by the attenuation of an angiotensin I pressor response after compound administration. The in vivo testing procedure is described in greater detail by Rubin et al., "SQ14,225 (D-3-Mercapto-2-Methylpropanoyl-L-Proline), A Novel Orally Active Inhibitor Of Angiotensin I Converting Enzyme", J. Pharm. Exp. Therap., Vol. 204, p 271-280 (1978).
The inhibition of the angiotensin I pressor response is expressed as the percentage of the response to angiotensin I obtained before the test compound was administered, and was measured at regular intervals during a three-hour period following the administration of the test compound. The maximum percentage inhibition observed during this period is given in the table as a number from 0 to 100 percent. All results are the mean values obtained for testing of each compound in at least four rats. For compounds tested at more than one dose, it can be observed that increased amounts of compound administered lead to increased levels of inhibition.

[1] = oral dose 0.5 (dose unit not given)
[2] = oral dose 1.5 (dose unit not given)
[3] = oral dose 5 (dose unit not given)
[4] = oral dose 15 (dose unit not given)
[5] = oral dose 0.5 (dose unit not given), dilithium salt
[6] = oral dose 1.5 (dose unit not given), dilithium salt
[7] = oral dose 5 (dose unit not given), dilithium salt

Compound	Maximum Percent Inhibition of the angiotensin I pressor response [1]	Maximum Percent Inhibition of the angiotensin I pressor response [2]	Maximum Percent Inhibition of the angiotensin I pressor response [3]	Maximum Percent Inhibition of the angiotensin I pressor response [4]	Maximum Percent Inhibition of the angiotensin I pressor response [5]	Maximum Percent Inhibition of the angiotensin I pressor response [6]	Maximum Percent Inhibition of the angiotensin I pressor response [7]	Maximum Percent Inhibition of the angiotensin I pressor response (oral dose 15 (dose unit not given), dilithium salt)
CCCCCCCCP(=O)(O)O[C@@H](CCCCN)C(=O)N1CCC[C@H]1C(=O)O [Example 12, (S)-1-[6-Amino-2-[(octylhydroxyphosphinyl)oxy]-1-oxohexyl]-L-proline, dilithium salt]	16.80%	51.10%	82.60%	93.60%				
NCCCC[C@H](OP(=O)(O)CCCCc1ccccc1)C(=O)N1CCC[C@H]1C(=O)O [Example 3, (S)-1-[6-Amino-2-[[hydroxy(4-phenylbutyl)phosphinyl]oxy]-1-oxohexyl]-L-proline, dilithium salt]				97.10%	20.90%	74.00%	91.00%	
NCCCC[C@H](OP(=O)(O)CCCCc1ccc(F)cc1)C(=O)N1CCC[C@H]1C(=O)O [Example 5, (S)-1-[6-Amino-2-[[[4-(4-fluorophenyl)butyl]hydroxyphosphinyl]oxy]-1-oxohexyl]-L-proline]	22.20%	69.00%	80.50%					
CCCCCCP(=O)(O)O[C@@H](CCCCN)C(=O)N1CCC[C@H]1C(=O)O [Example 8, (S)-1-[6-Amino-2-[(hexylhydroxyphosphinyl)oxy]-1-oxohexyl]-L-proline, dilithium salt]					19.70%	72.40%	82.70%	85.50%
NCCCC[C@H](OP(=O)(O)CCc1ccccc1)C(=O)N1CCC[C@H]1C(=O)O [Example 1, (S)-1-[6-Amino-2-[[hydroxy(2-phenylethyl)phosphinyl]oxy]-1-oxohexyl]-L-proline, dilithium salt]		50.30%	64.50%					
CCCCCP(=O)(O)O[C@@H](CCCCN)C(=O)N1CCC[C@H]1C(=O)O [Example 7, 1-[(S)-6-Amino-2-[(hydroxypentylphosphinyl)oxy]-1-oxohexyl]-L-proline]			57.20%					
CCCCCCP(=O)(O)O[C@@H](CCCCN)C(=O)N1CCC[C@H]1C(=O)O [Example 9, (S)-1-[6-Amino-2-[(hexylhydroxyphosphinyl)oxy]-1-oxohexyl]-L-proline]	17.90%	66.50%	82.10%	90.30%				
NCCCC[C@H](OP(=O)(O)CCCCc1ccccc1)C(=O)N1CCC[C@H]1C(=O)O [Example 4, (S)-1-[6-Amino-2-[[hydroxy(4-phenylbutyl)phosphinyl]oxy]-1-oxohexyl]-L-proline]	46.60%	69.00%	89.90%					
CCCCCCCP(=O)(O)O[C@@H](CCCCN)C(=O)N1CCC[C@H]1C(=O)O [Example 10, 1-[(S)-6-Amino-2-[(heptylhydroxyphosphinyl)oxy]-1-oxohexyl]-L-proline]	45.00%	66.00%	75.00%					
NCCCC[C@H](OP(=O)(O)CCCc1ccccc1)C(=O)N1CCC[C@H]1C(=O)O [Example 2, (S)-1-[6-Amino-2-[[hydroxy(3-phenylpropyl)phosphinyl]oxy]-1-oxohexyl]-L-proline]		32.30%	66.70%					
NCCCC[C@H](OP(=O)(O)CCCCCc1ccccc1)C(=O)N1CCC[C@H]1C(=O)O [Example 6, (S)-1-[6-Amino-2-[[hydroxy(5-phenylpentyl)phosphinyl]oxy]-1-oxohexyl]-L-proline]			64.70%					
